Molecules are shown by their SMILES.

One assay relates to Aβ42. The experiment in a line: In vitro cell screening assay in H4 cells expressing human APP751: Aβ42 by sandwich ELISA. In kind it is cell-based. The note with it: Homo sapiens, compounds 0.003-10 μM, incubated overnight (16-18 h), sandwich ELISA of supernatant. In outline:
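Secreted Aβ42 measured by sandwich ELISA, C-terminal-specific capture and 4G8-HRP detection, TMB read at 450 nm, from supernatants of APP751-expressing H4 cells exposed overnight (16-18 h) to 0.003-10 μM compound in Pro293 medium, 0.33% DMSO. Data scaled between DMSO and DAPT controls; EC50 from variable-slope nonlinear regression.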
(In general: ELISA stands for enzyme-linked immunosorbent assay.)
For orientation: EC50 means the concentration giving half of the maximal effect. Molecule `COc1nc(C2=NOCC(c3cn(C)c4cccc(C#N)c34)N2)ccc1-n1cnc(C)c1` (single isomer, unassigned; (+)) [Example 247A, (+)-3-(3-(6-methoxy-5-(4-methyl-1H-imidazol-1-yl)pyridin-2-yl)-5,6-dihydro-4H-1,2,4-oxadiazin-5-yl)-1-methyl-1H-indole-4-carbonitrile] had an EC50 of 47.1 nM. That is a double-digit nanomolar value.
`COc1cc(Cl)c2c(C3CON=C(c4ccc(-n5cnc(C)c5)c(OC)n4)N3)cn(C)c2c1` (single isomer, unassigned; (+)) [Example 261A, (+)-5-(4-chloro-6-methoxy-1-methyl-1H-indol-3-yl)-3-(6-methoxy-5-(4-methyl-1H-imidazol-1-yl)pyridin-2-yl)-5,6-dihydro-4H-1,2,4-oxadiazine] came in with a half-maximal effective concentration (EC50) of 38.7 nM.

Still in this assay, the particulars now being: compounds 0.003-10 μM, incubated overnight (16-18 h), sandwich ELISA of supernatant.
For the molecule `COc1nc(C2=NOCC(c3cn(C)c4ccc(Cl)c(F)c34)N2)ccc1-n1cnc(C)c1` (single isomer, unassigned; (+)) [Example 237A, (+)-5-(5-chloro-4-fluoro-1-methyl-1H-indol-3-yl)-3-(6-methoxy-5-(4-methyl-1H-imidazol-1-yl)pyridin-2-yl)-5,6-dihydro-4H-1,2,4-oxadiazine], it took 5 nM to reach a half-maximal effect (EC50).
For `COc1nc(C2=NOCC(c3ccc4nc(C)sc4c3)N2)ccc1-n1cnc(C)c1` (single isomer, unassigned; (+)) [Example 238B, (+)-3-(6-methoxy-5-(4-methyl-1H-imidazol-1-yl)pyridin-2-yl)-5-(2-methylbenzo[d]thiazol-6-yl)-5,6-dihydro-4H-1,2,4-oxadiazine], the EC50 came out at 113 nM.
Still for that read-out and setting: for `COc1nc(C2=NOCC(c3ccc(Cl)c(C4CC4)c3)N2)ccc1-n1cnc(C)c1` (single isomer, unassigned; (+)) [Example 239B, (+)-5-(4-chloro-3-cyclopropylphenyl)-3-(6-methoxy-5-(4-methyl-1H-imidazol-1-yl)pyridin-2-yl)-5,6-dihydro-4H-1,2,4-oxadiazine] the value was 13.1 nM.
Same read-out and setting: for `COc1nc(C2=NOCC(c3ccc4scnc4c3)N2)ccc1-n1cnc(C)c1` (single isomer, unassigned; (+)) [Example 240B, (+)-5-(benzo[d]thiazol-5-yl)-3-(6-methoxy-5-(4-methyl-1H-imidazol-1-yl)pyridin-2-yl)-5,6-dihydro-4H-1,2,4-oxadiazine] the value was 109 nM; for `COc1nc(C2=NOCC(c3nn(C)c4ccc(C(F)(F)F)cc34)N2)ccc1-n1cnc(C)c1` (single isomer, unassigned; (+)) [Example 241B, (+)-3-(6-methoxy-5-(4-methyl-1H-imidazol-1-yl)pyridin-2-yl)-5-(1-methyl-5-(trifluoromethyl)-1H-indazol-3-yl)-5,6-dihydro-4H-1,2,4-oxadiazine], 5.1 nM; for `COc1nc(C2=NOCC(c3cccc(OC(F)(F)F)c3)N2)ccc1-n1cnc(C)c1` (single isomer, unassigned; (+)) [Example 242B, (+)-3-(6-methoxy-5-(4-methyl-1H-imidazol-1-yl)pyridin-2-yl)-5-(3-(trifluoromethoxy)phenyl)-5,6-dihydro-4H-1,2,4-oxadiazine], 18.5 nM.
With `COc1nc(C2=NOCC(c3ccc(C4CC4)c(Cl)c3)N2)ccc1-n1cnc(C)c1` (single isomer, unassigned; (+)) [Example 243B, (+)-5-(3-chloro-4-cyclopropylphenyl)-3-(6-methoxy-5-(4-methyl-1H-imidazol-1-yl)pyridin-2-yl)-5,6-dihydro-4H-1,2,4-oxadiazine], the EC50 stood at 13.2 nM.
As to `COc1nc(C2=NOCC(c3cccc(Cl)c3)N2)ccc1-n1cnc(C)c1` (single isomer, unassigned; (+)) [Example 244B, (+)-5-(3-chlorophenyl)-3-(6-methoxy-5-(4-methyl-1H-imidazol-1-yl)pyridin-2-yl)-5,6-dihydro-4H-1,2,4-oxadiazine], the EC50 turned out to be 26.3 nM. This EC50 is about 2-fold higher than that of the molecule before.
In the case of `COc1nc(C2=NOCC(c3cn(C)c4ccc(C#N)cc34)N2)ccc1-n1cnc(C)c1` (single isomer, unassigned; (+)) [Example 245B, (+)-3-(3-(6-methoxy-5-(4-methyl-1H-imidazol-1-yl)pyridin-2-yl)-5,6-dihydro-4H-1,2,4-oxadiazin-5-yl)-1-methyl-1H-indole-5-carbonitrile], the EC50 was found to be 18.5 nM.
The same measure, in the same setting: in the case of `COc1nc(C2=NOCC(C3Cc4ccccc4C3)N2)ccc1-n1cnc(C)c1` (single isomer, unassigned; (+)) [Example 246B, (+)-5-(2,3-dihydro-1H-inden-2-yl)-3-(6-methoxy-5-(4-methyl-1H-imidazol-1-yl)pyridin-2-yl)-5,6-dihydro-4H-1,2,4-oxadiazine] it was 25.7 nM.
The molecule `COc1nc(C2=NOCC(c3ccc4c(c3)CCC4)N2)ccc1-n1cnc(C)c1` (single isomer, unassigned; (+)) [Example 248B, (+)-5-(2,3-dihydro-1H-inden-5-yl)-3-(6-methoxy-5-(4-methyl-1H-imidazol-1-yl)pyridin-2-yl)-5,6-dihydro-4H-1,2,4-oxadiazine] yielded an EC50 of 10.1 nM.
As to `COc1nc(C2=NOCC(c3cn(C)c4cc(C#N)ccc34)N2)ccc1-n1cnc(C)c1` (single isomer, unassigned; (+)) [Example 249B, (+)-3-(3-(6-methoxy-5-(4-methyl-1H-imidazol-1-yl)pyridin-2-yl)-5,6-dihydro-4H-1,2,4-oxadiazin-5-yl)-1-methyl-1H-indole-6-carbonitrile], the EC50 came to 30.2 nM. This EC50 is about 3-fold higher than that of the molecule before.
For `COc1ccc2c(c1)c(C1CON=C(c3ccc(-n4cnc(C)c4)c(OC)n3)N1)cn2C` (single isomer, unassigned; (+)) [Example 250B, (+)-5-(5-methoxy-1-methyl-1H-indol-3-yl)-3-(6-methoxy-5-(4-methyl-1H-imidazol-1-yl)pyridin-2-yl)-5,6-dihydro-4H-1,2,4-oxadiazine], the EC50 is 15.8 nM. This EC50 is about 1.9-fold lower than that of the molecule before.
The molecule `COc1nc(C2=NOCC(c3cn(C)c4cccc(OC)c34)N2)ccc1-n1cnc(C)c1` (single isomer, unassigned; (+)) [Example 252B, (+)-5-(4-methoxy-1-methyl-1H-indol-3-yl)-3-(6-methoxy-5-(4-methyl-1H-imidazol-1-yl)pyridin-2-yl)-5,6-dihydro-4H-1,2,4-oxadiazine] came in with an EC50 of 36.3 nM. This EC50 is about 2.3-fold higher than that of the molecule before.
On to `COc1nc(C2=NOCC(c3cn(C)c4cc(Cl)cc(OC)c34)N2)ccc1-n1cnc(C)c1` (single isomer, unassigned; (+)) [Example 254B, (+)-5-(6-chloro-4-methoxy-1-methyl-1H-indol-3-yl)-3-(6-methoxy-5-(4-methyl-1H-imidazol-1-yl)pyridin-2-yl)-5,6-dihydro-4H-1,2,4-oxadiazine], for which the EC50 was determined as 12.9 nM.
For the molecule `COc1cc2c(cc1Cl)c(C1CON=C(c3ccc(-n4cnc(C)c4)c(OC)n3)N1)cn2C` (single isomer, unassigned; (+)) [Example 255B, (+)-5-(5-chloro-6-methoxy-1-methyl-1H-indol-3-yl)-3-(6-methoxy-5-(4-methyl-1H-imidazol-1-yl)pyridin-2-yl)-5,6-dihydro-4H-1,2,4-oxadiazine], the EC50 came out at 9 nM.
The molecule `COc1nc(C2=NOCC(c3cn(C)c4cc(S(C)(=O)=O)ccc34)N2)ccc1-n1cnc(C)c1` (single isomer, unassigned; (+)) [Example 256B, (+)-3-(6-methoxy-5-(4-methyl-1H-imidazol-1-yl)pyridin-2-yl)-5-(1-methyl-6-(methylsulfonyl)-1H-indol-3-yl)-5,6-dihydro-4H-1,2,4-oxadiazine] returned an EC50 of 422 nM.
Take `COc1nc(C2=NOCC(c3cn(C)c4cc(F)c(C)cc34)N2)ccc1-n1cnc(C)c1` (single isomer, unassigned; (+)) [Example 257B, (+)-5-(6-fluoro-1,5-dimethyl-1H-indol-3-yl)-3-(6-methoxy-5-(4-methyl-1H-imidazol-1-yl)pyridin-2-yl)-5,6-dihydro-4H-1,2,4-oxadiazine]: the EC50 was found to be 4.9 nM.
For the molecule `COc1ccc2c(C3CON=C(c4ccc(-n5cnc(C)c5)c(OC)n4)N3)cn(C)c2c1` (single isomer, unassigned; (+)) [Example 258B, (+)-5-(6-methoxy-1-methyl-1H-indol-3-yl)-3-(6-methoxy-5-(4-methyl-1H-imidazol-1-yl)pyridin-2-yl)-5,6-dihydro-4H-1,2,4-oxadiazine], the EC50 stood at 23.5 nM. This EC50 lies about 4.8-fold higher than the previous one.
Consider `COc1nc(C2=NOCC(c3cc4cc(C(F)(F)F)ccc4o3)N2)ccc1-n1cnc(C)c1` (single isomer, unassigned; (+)) [Example 259B, (+)-3-(6-methoxy-5-(4-methyl-1H-imidazol-1-yl)pyridin-2-yl)-5-(5-(trifluoromethyl)benzofuran-2-yl)-5,6-dihydro-4H-1,2,4-oxadiazine], for which the EC50 came out at 9 nM.
As for `COc1nc(C2=NOCC(c3cc4ccc(C(F)(F)F)cc4o3)N2)ccc1-n1cnc(C)c1` (single isomer, unassigned; (+)) [Example 260B, (+)-3-(6-methoxy-5-(4-methyl-1H-imidazol-1-yl)pyridin-2-yl)-5-(6-(trifluoromethyl)benzofuran-2-yl)-5,6-dihydro-4H-1,2,4-oxadiazine], the EC50 is 4.8 nM.
As for `COc1nc(C2=NOCC(c3ccc(C(F)(F)F)c(Cl)c3)N2)ccc1-n1cnc(C)c1` (single isomer, unassigned; (+)) [Example 262B, (+)-5-(3-chloro-4-(trifluoromethyl)phenyl)-3-(6-methoxy-5-(4-methyl-1H-imidazol-1-yl)pyridin-2-yl)-5,6-dihydro-4H-1,2,4-oxadiazine], a half-maximal effect (EC50) was put at 10 nM.
The molecule `COc1nc(C2=NOCC(c3cn(C)c4ncc(Cl)cc34)N2)ccc1-n1cnc(C)c1` (single isomer, unassigned; (+)) [Example 264B, (+)-5-(5-chloro-1-methyl-1H-pyrrolo[2,3-b]pyridin-3-yl)-3-(6-methoxy-5-(4-methyl-1H-imidazol-1-yl)pyridin-2-yl)-5,6-dihydro-4H-1,2,4-oxadiazine] displayed an EC50 of 9.5 nM.

(Values after patent US9802927B2, “Oxadiazine compounds and methods of use thereof” (Denali Therapeutics, Inc., priority 2015, dated 2017).)
